Results reported in patent US10201546B2, “Quinolinyl modulators of RORγt” (Janssen Pharmaceutica NV, priority 2013, dated 2019).
Where a name gives a salt, the structure may show the parent alone. Read-outs that look alike come from different tables or passages of the source. Values belong to the compound of their own block, whether it stands above or below them.

Key:
[1] = target: human RORγt ligand binding domain (RORγt LBD) (Homo sapiens (Human), UniProt P51449); experiment: RORγt ThermoFluor assay (thermal shift, binding affinity Kd); conditions: read-out: ThermoFluor Assay, Kd
Chain of human RORγt ligand binding domain (RORγt LBD) (P51449 other isoform, or with tags, fused parts or gaps): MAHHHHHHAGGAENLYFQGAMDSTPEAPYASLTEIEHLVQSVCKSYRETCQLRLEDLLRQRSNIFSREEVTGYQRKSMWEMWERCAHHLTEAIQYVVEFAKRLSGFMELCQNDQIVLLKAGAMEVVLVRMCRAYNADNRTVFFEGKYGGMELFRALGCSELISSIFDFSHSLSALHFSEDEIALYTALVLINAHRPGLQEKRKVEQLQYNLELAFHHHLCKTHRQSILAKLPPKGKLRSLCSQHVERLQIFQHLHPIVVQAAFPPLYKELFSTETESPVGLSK

[2] = tested on: IL-17 production by CD4+ T cells under conditions which favor Th17 differentiation; experiment: Human Th17 assay (IL-17 production by CD4 T cells); assay type: cell-based
[3] = target: human RORγt LBD fused to the DNA binding domain of the GAL4 protein (Homo sapiens (Human), UniProt P51449); experiment: RORγt (LBD) reporter assay in HEK293T cells; assay type: cell-based; set-up: RORγt (LBD) Reporter Assay, % inhibition: dose or concentration left out as unconfirmed
Chain of human RORγt LBD fused to the DNA binding domain of the GAL4 protein (P51449 258-518): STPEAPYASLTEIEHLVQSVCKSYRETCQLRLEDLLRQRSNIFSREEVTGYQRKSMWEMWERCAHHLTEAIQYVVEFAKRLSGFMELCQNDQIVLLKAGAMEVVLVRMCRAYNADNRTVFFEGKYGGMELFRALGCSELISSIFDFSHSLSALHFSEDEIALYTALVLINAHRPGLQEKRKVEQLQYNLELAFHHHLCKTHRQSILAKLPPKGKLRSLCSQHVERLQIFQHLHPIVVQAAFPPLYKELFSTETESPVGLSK

Kd [1]: 9 nM
IC50 [2]: > 6000 nM
IC50 [3]: > 6000 nM
RORγt (LBD) Reporter Assay, % inhibition @ 6 μM [3]: 42%
SMILES: COc1nc2ccc([C@@](O)(c3ccccc3)C3CCN(C(C)=O)CC3)cc2c(Cl)c1CC1CCOCC1 [Example 4b]

IC50 [2]: 1.4 nM
RORγt (LBD) Reporter Assay, % inhibition @ 6 μM [3]: 100%
SMILES: COc1nc2ccc(C(O)(c3cnnn3C)c3cnc(C)n3C)cc2c(Cl)c1CN1CCC(C(F)(F)F)CC1 (single isomer, unassigned) [Example 106c, (4-Chloro-2-methoxy-3-((4-(trifluoromethyl)piperidin-1-yl)methyl)quinolin-6-yl)(1,2-dimethyl-1H-imidazol-5-yl)(1-methyl-1H-1,2,3-triazol-5-yl)methanol]

IC50 [2]: 35 nM
SMILES: COc1nc2ccc(C(O)(c3cnc(C)n3C)C3CN(C(C)=O)C3)cc2c(Cl)c1CN1CCC(C(F)(F)F)CC1 (single isomer, unassigned) [Example 124c, 1-(3-((4-Chloro-2-methoxy-3-((4-(trifluoromethyl)piperidin-1-yl)methyl)quinolin-6-yl)(1,2-dimethyl-1H-imidazol-5-yl)(hydroxy)methyl)azetidin-1-yl)ethanone]

SMILES: CCOc1c(OC)nc2ccc(C(O)(c3ccc(C(F)(F)F)nc3)c3cncn3C)cc2c1Cl (single isomer, unassigned) [Example 91c, (4-Chloro-3-ethoxy-2-methoxyquinolin-6-yl)(1-methyl-1H-imidazol-5-yl)[6-(trifluoromethyl)pyridin-3-yl]methanol]
IC50 ([2]; Homo sapiens): 520 nM

SMILES: COc1nc2ccc(C(O)(c3ccc(Cl)cc3)c3cncn3C)cc2c(Cl)c1OCC(F)(F)F (single isomer, unassigned) [Example 86c, [4-Chloro-2-methoxy-3-(2,2,2-trifluoroethoxy)quinolin-6-yl](4-chlorophenyl)(1-methyl-1H-imidazol-5-yl)methanol]
IC50 ([2]; Homo sapiens): 21 nM

SMILES: Cc1nc(C)c(C(O)(c2ccc3nc(N4CCC4)c(OC(C)C)c(Cl)c3c2)c2cnnn2C)s1 (single isomer, unassigned) [Example 82c, [2-Azetidin-1-yl-4-chloro-3-(1-methylethoxy)quinolin-6-yl](2,4-dimethyl-1,3-thiazol-5-yl)(1-methyl-1H-1,2,3-triazol-5-yl)methanol]
IC50 ([2]; Homo sapiens): 1.2 nM

SMILES: CC(C)c1c(Cl)nc2ccc(C(O)(c3cccnc3)c3cccc(Cl)c3)cc2c1Cl (centres unmarked) [Example 19, (3-Chlorophenyl) [2,4-dichloro-3-(1-methylethyl)quinolin-6-yl]pyridin-3-ylmethanol.TFA]
IC50 ([2]; Homo sapiens): 1300 nM

SMILES: CC(C)Oc1c(N2CCC2)nc2ccc(C(O)(c3ccc(Cl)cc3)c3cncn3C)cc2c1Cl (single isomer, unassigned) [Example 94c, [2-Azetidin-1-yl-4-chloro-3-(1-methylethoxy)quinolin-6-yl](4-chlorophenyl)(1-methyl-1H-imidazol-5-yl)methanol]
IC50 ([2]; Homo sapiens): 380 nM

IC50 ([2]; Homo sapiens, CD4+ T): 7.6 nM
RORγt (LBD) Reporter Assay, % inhibition @ 6 μM [3]: 100%
SMILES: COc1nc2ccc(C(O)(c3ccnc(C(F)(F)F)c3)c3cncn3C)cc2c(Cl)c1CN1CCC(C(F)(F)F)CC1 (single isomer, unassigned) [Example 100c, (4-Chloro-2-methoxy-3-((4-(trifluoromethyl)piperidin-1-yl)methyl)quinolin-6-yl)(1-methyl-1H-imidazol-5-yl)(2-(trifluoromethyl)pyridin-4-yl)methanol]

IC50 ([2]; Homo sapiens, CD4+ T): 370 nM
RORγt (LBD) Reporter Assay, % inhibition [3]: 100%
SMILES: COc1nc2ccc(C(O)(c3ccc(C)nc3C)c3cnnn3C)cc2c(Cl)c1CC(F)(F)F (single isomer, unassigned) [Example 143c, [4-Chloro-2-methoxy-3-(2,2,2-trifluoroethyl)quinolin-6-yl](2,6-dimethylpyridin-3-yl)(1-methyl-1H-1,2,3-triazol-5-yl)methanol]

SMILES: COc1nc2ccc(C(O)(c3ccc(Cl)cc3)c3cncn3C)cc2c(Cl)c1OC(C)C (single isomer, unassigned) [Example 99b, [4-Chloro-2-methoxy-3-(1-methylethoxy)quinolin-6-yl](4-chlorophenyl)(1-methyl-1H-imidazol-5-yl)methanol]
IC50 ([2]; Homo sapiens): 1200 nM
